≈ marks a conversion by molar mass, not a printed value. Where two headings read alike, the source gives them in different places.
Tests used:
[1] = test system: K562 human leukemia cell line; assay: In vitro anti-cancer efficacy, K562, trypan blue dye exclusion, 48 hours; type: cell-based; details: for IC50 / IC90: Homo sapiens; for IC50: read-out: K562 IC50; for IC90: read-out: K562 IC90
Procedure: (§1) The above compounds were dissolved in DMSO at stock concentration of 10 mg/ml and stored at 4° C. Before each experiment they were diluted to desired concentration with serum-free RPMI 1640 medium
1. K562 human leukemia cell line: K562 cells were maintained in RPMI 1640 medium with 5% fetal bovine serum at 37° C. under 5% CO2 atmosphere. 4×10^4 cells/well were plated on 96-well plate. After treatment with the test compounds and solvent control (DMSO) for 48 hours, numbers of live cells were counted by trypan blue dye exclusion.
(§2) Reagents and Methods: same as in Experiment 1.

[2] = test system: B16 mouse melanoma cell line; assay: In vitro anti-cancer efficacy, B16, SRB method, 48 hours; type: cell-based; details: for IC50 / IC90: Mus musculus; for IC50: read-out: B16 IC50; for IC90: read-out: B16 IC90
Procedure: as §1
2. B16 mouse melanoma cell line: B16 cells were maintained under the same condition as above. 2×10^4 cells/well were plated on 48-well plate and left for 12 hours for attachment. Cells were then treated with the test compounds and solvent control for 48 hours. Numbers of live cells were determined by SRB method. Briefly, cells were fixed with 50 μl/well 15% TCA for 1 hour, and then washed three times with double-distilled water. After drying 50 μl/well 1% SRB dye was added and reacted for 10 minutes. Plate was washed with 1% acetic acid. 0.2 ml Tris buffer (pH 9.6) was added and OD510 was recorded.
as §2

[3] = K562, Table 2, unit inferred, methods same as in Experiment 1
[4] = Table 2, unit inferred, methods same as in Experiment 1

Row | Compound | IC50 ([1]; K562, Table 1, 48 hours) [µg/mL] | IC90 ([1]; K562, Table 1, 48 hours) [µg/mL] | IC50 ([2]; Table 1, 48 hours) [µg/mL] | IC90 ([2]; Table 1, 48 hours) [µg/mL] | also measured
1 | CC(C)CC=CCCCCC(=O)O [9-methyl-6-decenoic acid] |  |  |  |  | IC50 [1, 3]: 50.8 µg/mL (≈ 276 µM); IC90 [1, 3]: 83 µg/mL (≈ 450 µM); IC50 [2, 4]: 90 µg/mL (≈ 488 µM); IC90 [2, 4]: 269 µg/mL (≈ 1460 µM)
2 | CC(C)CCCCCCCC(=O)O [9-methyl-decanoic acid, reference compound] |  |  |  |  | IC50 [1, 3]: 55.5 µg/mL (≈ 298 µM); IC90 [1, 3]: 87 µg/mL (≈ 467 µM); IC50 [2, 4]: 97 µg/mL (≈ 521 µM); IC90 [2, 4]: 280 µg/mL (≈ 1500 µM)
3 | CC(C)CCCCCCCC=CCCCCC(=O)O [15-methyl-6-hexadecenoic acid] |  |  |  |  | IC50 [1, 3]: 23.8 µg/mL (≈ 88.7 µM); IC90 [1, 3]: 30.5 µg/mL (≈ 114 µM); IC50 [2, 4]: 21.3 µg/mL (≈ 79.3 µM); IC90 [2, 4]: 35.2 µg/mL (≈ 131 µM)
4 | CC(C)CCCCCCCCCCCCCC(=O)O [15-methyl-hexadecanoic acid, reference compound] |  |  |  |  | IC50 [1, 3]: 25.9 µg/mL (≈ 95.8 µM); IC90 [1, 3]: 35.6 µg/mL (≈ 132 µM); IC50 [2, 4]: 20.7 µg/mL (≈ 76.5 µM); IC90 [2, 4]: 38.2 µg/mL (≈ 141 µM)
5 | CC(C)CCCCCCCCCCCC(=O)Nc1ccc(S(=O)(=O)O)cc1 [Compound 2, N-(4-Sulfo-phenyl)-13-methyl tetradecamide] |  |  |  |  | K562 IC50 ([1]; Table 1, 48 hours): 27.1 µg/mL; K562 IC90 ([1]; Table 1, 48 hours): 37.8 µg/mL; B16 IC50 ([2]; Table 1, 48 hours): 25.4 µg/mL; B16 IC90 ([2]; Table 1, 48 hours): 35.7 µg/mL
6 | CC(C)CCCCCCCCCCCC(=O)NCC(=O)O [Compound 3, N-(13-methyl-tetradecanoyl)glycine] | 14.7 (≈ 49.1 µM) | 21.9 (≈ 73.1 µM) | 12.8 (≈ 42.7 µM) | 20.1 (≈ 67.1 µM) | 
7 | CC(C)CCCCCCCCCCCC(=O)N[C@@H](C)C(=O)O [Compound 4, N-(13-methyl-tetradecanoyl)-L-alanine] | 11.2 (≈ 35.7 µM) | 20.7 (≈ 66 µM) | 14.8 (≈ 47.2 µM) | 18.4 (≈ 58.7 µM) | 
8 | CC(C)CCCCCCCCCCCC(=O)N[C@@H](Cc1ccccc1)C(=O)O [Compound 5, N-(13-methyl-tetradecanoyl)-L-phenylalanine] | 10.3 (≈ 26.4 µM) | 19.6 (≈ 50.3 µM) | 13.4 (≈ 34.4 µM) | 20.5 (≈ 52.6 µM) | 
9 | CC(C)CCCCCCCCCCCC(=O)N[C@H](C(=O)O)C(C)C [Compound 6, N-(13-methyl-tetradecanoyl)-L-valine] | 18.1 (≈ 53 µM) | 22.5 (≈ 65.9 µM) | 11.7 (≈ 34.3 µM) | 19.2 (≈ 56.2 µM) | 
10 | CC(C)CCCCCCCCCCCC(=O)N[C@@H](CC(C)C)C(=O)O [Compound 7, N-(13-methyl-tetradecanoyl)-L-leucine] | 11.8 (≈ 33.2 µM) | 30.6 (≈ 86.1 µM) | 10.4 (≈ 29.2 µM) | 20.1 (≈ 56.5 µM) | 
11 | CC[C@H](C)[C@H](NC(=O)CCCCCCCCCCCC(C)C)C(=O)O [Compound 8, N-(13-methyl-tetradecanoyl)-L-isoleucine] | 19.3 (≈ 54.3 µM) | 28.6 (≈ 80.4 µM) | 11.1 (≈ 31.2 µM) | 18.9 (≈ 53.2 µM) | 
12 | CC(C)CCCCCCCCCCCC(=O)N[C@@H](CCC(=O)O)C(=O)O [Compound 9, N-(13-methyl-tetradecanoyl)-L-glutamic acid] | 28.2 (≈ 75.9 µM) | 37.9 (≈ 102 µM) | 26.3 (≈ 70.8 µM) | 35.1 (≈ 94.5 µM) | 
13 | CC(C)CCCCCCCCCCCC(=O)N1CCC[C@H]1C(=O)O [Compound 10, N-(13-methyl-tetradecanoyl)-L-proline] |  |  |  |  | IC50 ([1]; K562, 48 h): 17.2 µg/mL (≈ 50.7 µM); IC90 ([1]; K562, 48 h): 25.3 µg/mL (≈ 74.5 µM); IC50 ([2]; 48 h): 15.2 µg/mL (≈ 44.8 µM); IC90 ([2]; 48 h): 17.3 µg/mL (≈ 51 µM)
14 | CC(C)CCCCCCCCCCCC(=O)N[C@@H](C=O)[C@@H](O)[C@H](O)[C@H](O)CO [Compound 11, N-(13-methyl-tetradecanoyl)-2-amino-2-deoxyglucose] | 24.3 (≈ 60.2 µM) | 38.1 (≈ 94.4 µM) | 24.5 (≈ 60.7 µM) | 34.6 (≈ 85.7 µM) | 
15 | CC(C)CCCCCCCCCCCC(=O)Nc1ccc(C(=O)O)c(O)c1 [Compound 12, N-(3-Hydroxy-4-carboxylphenyl)-13-methyl-tetradecanamide] | 18.7 (≈ 49.5 µM) | 24.7 (≈ 65.4 µM) | 16.5 (≈ 43.7 µM) | 22.9 (≈ 60.7 µM) | 
16 | CCN(CC)C(=O)CCCCCCCCCCCC(C)C [Compound 13, N,N-Diethyl-13-methyl-tetradecanamide] | 9.1 (≈ 30.6 µM) | 42.4 (≈ 143 µM) | 19.3 (≈ 64.9 µM) | 31.9 (≈ 107 µM) | 

Row | Compound | IC50 ([1]; K562, Table 1, 48 hours) [µg/mL] | IC90 ([1]; K562, Table 1, 48 hours) [µg/mL] | IC50 ([2]; Table 1, 48 hours) [µg/mL] | IC90 ([2]; Table 1, 48 hours) [µg/mL] | also measured
17 | CC(C)CCCCCCCCCCCC(=O)N1CCCCC1 [Compound 14, N-(13-Methyltetradecanoyl)piperidine] | 18.4 (≈ 59.4 µM) | 38.5 (≈ 124 µM) | 17.2 (≈ 55.6 µM) | 33.7 (≈ 109 µM) | 
18 | CC(C)CCCCCCCCCCCC(=O)N1CCCC1 [Compound 15, N-(13-Methyl-tetradecanoyl)pyrrolidine] | 16.2 (≈ 54.8 µM) | 25 (≈ 84.6 µM) | 13.1 (≈ 44.3 µM) | 17.3 (≈ 58.5 µM) | 
19 | CC(C)CCCCCCCCCCCC(=O)N1CCOCC1 [Compound 16, N-(13-Methyl-tetradecanoyl)morpholine] | 15.9 (≈ 51 µM) | 20.4 (≈ 65.5 µM) | 11.9 (≈ 38.2 µM) | 19.2 (≈ 61.6 µM) | 
20 | CC(C)CCCCCCCCCCC(=O)c1ccc(O)cc1O [Compound 18, (2,4,-dihydroxy phenyl)-12-methyl tridecanone] |  |  |  |  | K562 IC50 ([1]; Table 1, 48 hours): 6.42 µg/mL; K562 IC90 ([1]; Table 1, 48 hours): 8.90 µg/mL; B16 IC50 ([2]; Table 1, 48 hours): 5.91 µg/mL; B16 IC90 ([2]; Table 1, 48 hours): 8.12 µg/mL
21 | CC(C)CCCCCCCCCCCCc1ccc(O)cc1O [Compound 21, (13-Methyl tetradecyl)-2,4-dihydroxy phene] |  |  |  |  | K562 IC50 ([1]; Table 1, 48 hours): 3.62 µg/mL; K562 IC90 ([1]; Table 1, 48 hours): 5.25 µg/mL; B16 IC50 ([2]; Table 1, 48 hours): 3.22 µg/mL; B16 IC90 ([2]; Table 1, 48 hours): 5.14 µg/mL
22 | CC(C)(C)CCCCCCCCCCCCc1ccc(O)cc1O [Compound 22, (13,13-Dimethyl tetradecyl)-2,4-dihydroxy phene] |  |  |  |  | K562 IC50 ([1]; Table 1, 48 hours): 3.92 µg/mL; K562 IC90 ([1]; Table 1, 48 hours): 5.36 µg/mL; B16 IC50 ([2]; Table 1, 48 hours): 3.63 µg/mL; B16 IC90 ([2]; Table 1, 48 hours): 5.42 µg/mL
23 | CCC(C)CCCCCCCCCCCc1ccc(O)cc1O (centres unmarked) [Compound 23, (12-Methyl tetradecyl)-2,4-dihydroxy phene] |  |  |  |  | K562 IC50 ([1]; Table 1, 48 hours): 9.51 µg/mL; K562 IC90 ([1]; Table 1, 48 hours): 14.6 µg/mL; B16 IC50 ([2]; Table 1, 48 hours): 8.81 µg/mL; B16 IC90 ([2]; Table 1, 48 hours): 13.8 µg/mL
24 | CC(C)CCCCCCCCCCCCc1ccc(O)c(O)c1O [Compound 24, (13-Methyl tetradecyl)-2,3,4-trihydroxy phene] |  |  |  |  | K562 IC50 ([1]; Table 1, 48 hours): 13.6 µg/mL; K562 IC90 ([1]; Table 1, 48 hours): 19.2 µg/mL; B16 IC50 ([2]; Table 1, 48 hours): 12.8 µg/mL; B16 IC90 ([2]; Table 1, 48 hours): 19.5 µg/mL
25 | CC(C)CCCCCCCCCCCNc1ccc(S(=O)(=O)O)cc1 [Compound 25, N-(12-Methyltridecyl)-4-amino benzenesulfonic acid] | 15.1 (≈ 40.9 µM) | 20 (≈ 54.1 µM) | 13.5 (≈ 36.5 µM) | 18.8 (≈ 50.9 µM) | 
26 | CC(C)CCCCCCCCCCCNc1ccc(O)c(O)c1 [Compound 26, N-(12-Methyl-tridecyl)-4-amino-1,2-benzenediol] | 6.73 (≈ 20.9 µM) | 13.5 (≈ 42 µM) | 5.81 (≈ 18.1 µM) | 12.6 (≈ 39.2 µM) | 
27 | CC(C)CCCCCCCCCCC(Br)C(=O)O (centres unmarked) [Compound 27, 2-Bromo-13-methyl-tetradecanoic acid] | 7.21 (≈ 22.4 µM) | 10.1 (≈ 31.4 µM) | 6.1 (≈ 19 µM) | 11.2 (≈ 34.9 µM) | 
28 | CC(C)CCCCCCCCCCC(N)C(=O)O (centres unmarked) [Compound 28, 2-Amino-13-methyl-tetradecanoic acid] | 19.7 (≈ 76.5 µM) | 28.6 (≈ 111 µM) | 17.4 (≈ 67.6 µM) | 25.3 (≈ 98.3 µM) | 
29 | CC(C)CCCCCCCCCCCCNc1ccc(O)c(O)c1 [Compound 32, N-(13-Methyltetradecyl)-4-amino-1,2-benzenediol] | 6.31 (≈ 18.8 µM) | 11.5 (≈ 34.3 µM) | 5.75 (≈ 17.1 µM) | 10.6 (≈ 31.6 µM) | 
30 | CC(C)CCCCCC=CC(=O)O [Compound 33, 9-Methyl-2-decenoic acid] | 51.2 (≈ 278 µM) |  |  |  | IC50 [1, 3]: 26.7 µg/mL (≈ 145 µM); IC90 [1, 3]: 51.2 µg/mL (≈ 278 µM); IC50 [2, 4]: 40.5 µg/mL (≈ 220 µM); IC90 [2, 4]: 91 µg/mL (≈ 494 µM)
31 | (2,3,4-Trihydroxy phenyl)-12-methyl tridecanone [Compound 20] |  |  |  |  | K562 IC50 ([1]; Table 1, 48 hours): 15.3 µg/mL; K562 IC90 ([1]; Table 1, 48 hours): 20.2 µg/mL; B16 IC50 ([2]; Table 1, 48 hours): 14.8 µg/mL; B16 IC90 ([2]; Table 1, 48 hours): 19.32 µg/mL

— patent US7109364B2, “Group of anti-cancer compounds with specific structure and their production method” (priority 2000, dated 2006)
